Measured values published in patent US5798356A, “Angiostatic compounds” (Alcon Laboratories, Inc., priority 1996, dated 1998).

Columns and labels:
[1] = tested on: human lung microvascular endothelial cells; assay: inhibition of 3H-thymidine uptake in DNA as a measure of DNA synthesis; assay type: cell-based; details: Endothelial cell, 18 hours exposure, then 3H-thymidine 6 hours; for inhibition at 5 µM: concentration 5.0 μM; for inhibition at 10 µM: concentration 10 μM; for inhibition at 25 µM: concentration 25 μM
Description: Representative compounds of the present invention were assayed for their efficacy in inhibiting ^3 H-thymidine uptake in DNA as a measure of DNA synthesis (R.I. Freshney, Culture of Animal Cells, 3rd Edition, John Wiley and Sons, N.Y., N.Y., pages 277-278 (1994)). Briefly, human lung microvascular endothelial cells in mid-log phase were exposed to either a representative compound of the present invention or the vehicle (1.0% DMSO) for 18 hours. Cells were then incubated with ^3 H-thymidine for another 6 hours. DNA synthesis was stopped by the addition of cold 5% TCA solution and the relative synthesis assessed by measuring ^3 H-thymidine incorporated into the acid-insoluble product. The data is expressed as percent inhibition of uptake based on tritium counts in the vehicle control reactions.

[2] = tested on: human umbilical vein endothelial cells (HUVEC); assay: inhibition of endothelial cell proliferation (HUVEC); assay type: cell-based; details: for inhibition at 1 µM / inhibition at 5 µM / inhibition at 10 µM / inhibition at 25 µM: Homo sapiens; for inhibition at 25 µM: concentration 25 μM
Description: Representative compounds of the present invention were assayed for their efficacy in inhibiting endothelial cell proliferation. […] At mid-log phase the cells were detached from the plate and counted using a coulter counter. Viability tests were conducted using trypan blue. The data is expressed as percent inhibition based on the control number of endothelial cells counted.

[3] = tested on: chorioallantoic membrane (CAM); assay: inhibition of angiogenesis in a chorioallantoic membrane (CAM) model; assay type: in vivo, chicken embryo; details: 10 μg in liposome/agarose bead on CAM, 2 days; percent responding embryos per nanomole relative to tetrahydrocortisol
Description: Representative compounds of the present invention were assayed for their efficacy in inhibiting angiogenesis in a chorioallantoic membrane (CAM) model (See, McNatt, et al., Angiostatic Activity and Metabolism of Cortisol in The Chorioallantoic Membrane (CAM) of the Chick Embryo, Journal of Steriod Biochemistry and Molecular Biology, volume 42, No. 7, pages 687-693 (1992)). Briefly, 10 μg of the test compound or reference compound (tetrahydrocortisol) were suspended in a liposome/agarose bead and placed on the CAM of a 5-6 day chicken embryo. Following 2 days of incubation, the CAMs were scored for relative angiostatic activity by comparing percent responding embryos per nanomole test compound to percent responding embryos for the reference compound.

[4] = tested on: rabbit cornea; assay: rabbit model of lipopolysaccharide (LPS) induced corneal neovascularization; assay type: in vivo; details: Elvax-40 pellet in cornea, Elvax control = 100
Description: Representative compounds of the present invention were assayed for their efficacy in inhibiting angiogenesis in vivo, in a rabbit model of lipopolysaccharide (LPS) induced corneal neovascularization. Briefly, the test compound and LPS (a stimulus for initiating neovascularization) are incorporated into separate Elvax-40 pellets as described in D. […] The area covered by new vessel formation in response to LPS is measured and suppression of neovascularization by test compounds is estimated at the end of the test period. The data is expressed as a relative area units in relation to the Elvax control (100).

`COc1ccc2cc(C(C)C(=O)OCC3(C)Cc4c(C)c(O)c(C)c(C)c4O3)ccc2c1` (stereo not shown) [Compound B] gave an inhibition at 5 µM [1] of 36.9%, an inhibition at 10 µM [1] of 63.1% and an inhibition at 25 µM [1] of 97.9%. For the same molecule, the inhibition at 1 µM ([2]; concentration 1.0 μM) was 5%, the inhibition at 5 µM ([2]; concentration 5.0 μM) was 13.9% and the inhibition at 10 µM ([2]; concentration 10 μM) was 47.7%. The inhibition at 25 µM [2] was 60.5% and the “RAF (Relative Angiostatic Factor)” value [3] was 1.06.
`Cc1c(C)c2c(c(C)c1O)CC(C)(CCN1CCN(C(c3ccc(F)cc3)c3ccc(F)cc3)CC1)O2` (stereo not shown) [Compound E] was tested, and the “Relative Area of Neovascularization” value ([4]; day 4) was 99 relative area units, the “Relative Area of Neovascularization” value ([4]; day 9) was 76 relative area units and the “Relative Area of Neovascularization” value ([4]; day 15) was 88 relative area units. The “Relative Area of Neovascularization” value ([4]; day 22) was 115 relative area units, the inhibition at 1 µM ([2]; concentration 1.0 μM) was 25% and the inhibition at 5 µM ([2]; concentration 5.0 μM) was 48%. For the same molecule, the inhibition at 10 µM ([2]; concentration 10 μM) was 88%, the inhibition at 25 µM [2] was 91% and the “RAF (Relative Angiostatic Factor)” value [3] was 1.78.
`C[C@]12CCC(=O)C=C1CC[C@@H]1[C@@H]2[C@@H](O)C[C@@]2(C)[C@H]1CC[C@]2(O)C(=O)COC(=O)CCC(=O)O` [Hydrocortisone hemisuccinate, reference compound] was tested, and the “Relative Area of Neovascularization” value ([4]; day 4) was 0 relative area units, the “Relative Area of Neovascularization” value ([4]; day 9) was 1.5 relative area units and the “Relative Area of Neovascularization” value ([4]; day 15) was 0.6 relative area units. The “Relative Area of Neovascularization” value ([4]; day 22) was 4.9 relative area units.
Vitamin E [reference compound] was tested, and the “% Inhibition of Endothelial Cell Proliferation” value (from here on “% Inhibition”) ([2]; concentration 1.0 μM) was 0%, the “% Inhibition” value ([2]; concentration 5.0 μM) was 0% and the “% Inhibition” value ([2]; concentration 10 μM) was 1%.
`Cc1c(C)c2c(c(C)c1OC(=O)CCC(=O)O)CCC(C)(CCCC(C)CCCC(C)CCCC(C)C)O2` (stereo not shown) [Compound G] gave an inhibition at 1 µM ([2]; concentration 1.0 μM) of 43%, an inhibition at 5 µM ([2]; concentration 5.0 μM) of 8% and an inhibition at 10 µM ([2]; concentration 10 μM) of 35.1%. The inhibition at 25 µM [2] was 65.5% and the “RAF (Relative Angiostatic Factor)” value [3] was 1.21.
`C[C@]12CC[C@@H](O)C[C@H]1CC[C@@H]1[C@@H]2[C@@H](O)C[C@@]2(C)[C@H]1CC[C@]2(O)C(=O)CO` [Tetrahydrocortisol, tetrahydrocortisol, reference compound] was tested, and the “RAF (Relative Angiostatic Factor)” value [3] was 1.00.
For `Cc1c(C)c2c(c(C)c1O)CCC(C)(CCO)O2` (stereo not shown) [F], the “Relative Area of Neovascularization” value ([4]; day 4) was 92 relative area units, the “Relative Area of Neovascularization” value ([4]; day 9) was 85 relative area units and the “Relative Area of Neovascularization” value ([4]; day 15) was 30 relative area units. For the same molecule, the “Relative Area of Neovascularization” value ([4]; day 22) was 39 relative area units.
For `COc1ccc2cc(C(C)C(=O)NCC3(C)CCc4c(C)c(O)c(C)c(C)c4O3)ccc2c1` (stereo not shown) [C], the “Relative Area of Neovascularization” value ([4]; day 4) was 102 relative area units, the “Relative Area of Neovascularization” value ([4]; day 9) was 57 relative area units and the “Relative Area of Neovascularization” value ([4]; day 15) was 41 relative area units. For the same molecule, the “Relative Area of Neovascularization” value ([4]; day 22) was 60 relative area units.
For `COc1ccc2cc(C(C)C(=O)OCCC3(C)CCc4c(C)c(O)c(C)c(C)c4O3)ccc2c1` (stereo not shown) [Compound A], the inhibition at 5 µM [1] was 16.3%, the inhibition at 10 µM [1] was 25.7% and the inhibition at 15 µM ([1]; concentration 15 μM) was 57.4%. The inhibition at 20 µM ([1]; concentration 20 μM) was 82.9%, the inhibition at 25 µM [1] was 96.5% and the “Relative Area of Neovascularization” value ([4]; day 4) was 66 relative area units. The “Relative Area of Neovascularization” value ([4]; day 9) was 54 relative area units, the “Relative Area of Neovascularization” value ([4]; day 15) was 48 relative area units and the “Relative Area of Neovascularization” value ([4]; day 22) was 103 relative area units. The inhibition at 1 µM ([2]; concentration 1.0 μM) was 6.7%, the inhibition at 5 µM ([2]; concentration 5.0 μM) was 25.5% and the inhibition at 10 µM ([2]; concentration 10 μM) was 43.4%. The inhibition at 25 µM [2] was 55.2% and the “RAF (Relative Angiostatic Factor)” value [3] was 0.10.
